Results taken from PubChem BioAssay (NCI).
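In this assay, cells in 96-well plates receive the compound at five concentrations for 48 hours. Endpoints are linearly interpolated between the surrounding concentrations. The concentration for full growth arrest is given as TGI.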

What was measured:
Test in all cases: DTP human tumour cell line panel, 48 h
RXF 393 renal = system: RXF 393 renal
KM12 colon = system: KM12 colon
SK-MEL-5 melanoma = system: SK-MEL-5 melanoma
OVCAR-4 ovarian = system: OVCAR-4 ovarian
SN12C renal = system: SN12C renal
HT29 colon = system: HT29 colon
T-47D breast = system: T-47D breast
HCT-116 colon = system: HCT-116 colon
RPMI-8226 leukemia = system: RPMI-8226 leukemia
MDA-MB-435 = system: MDA-MB-435
U251 CNS = system: U251 CNS
HOP-92 NSCLC = system: HOP-92 NSCLC
UO-31 renal = system: UO-31 renal
OVCAR-3 ovarian = system: OVCAR-3 ovarian
UACC-62 melanoma = system: UACC-62 melanoma
COLO 205 colon = system: COLO 205 colon
NCI-H23 lung = system: NCI-H23 lung
NCI-H460 lung = system: NCI-H460 lung
HL-60(TB) leukemia = system: HL-60(TB) leukemia
MDA-MB-231 breast = system: MDA-MB-231 breast
HOP-62 NSCLC = system: HOP-62 NSCLC
K-562 leukemia = system: K-562 leukemia
NCI/ADR-RES ovarian = system: NCI/ADR-RES ovarian
CAKI-1 renal = system: CAKI-1 renal
A549 NSCLC = system: A549 NSCLC
TK-10 renal = system: TK-10 renal
IGROV1 ovarian = system: IGROV1 ovarian
OVCAR-5 ovarian = system: OVCAR-5 ovarian
SF-295 CNS = system: SF-295 CNS
SF-539 CNS = system: SF-539 CNS
CCRF-CEM leukemia = system: CCRF-CEM leukemia
BT-549 breast = system: BT-549 breast
SNB-75 CNS = system: SNB-75 CNS
MDA-N = system: MDA-N
DU-145 prostate = system: DU-145 prostate
MCF7 breast = system: MCF7 breast
MALME-3M melanoma = system: MALME-3M melanoma
UACC-257 melanoma = system: UACC-257 melanoma
SK-MEL-2 melanoma = system: SK-MEL-2 melanoma
PC-3 prostate = system: PC-3 prostate
786-0 renal = system: 786-0 renal
HCC-2998 colon = system: HCC-2998 colon
M14 melanoma = system: M14 melanoma
ACHN renal = system: ACHN renal
LOX IMVI melanoma = system: LOX IMVI melanoma
NCI-H226 lung = system: NCI-H226 lung
NCI-H522 lung = system: NCI-H522 lung
HS 578T breast = system: HS 578T breast
EKVX NSCLC = system: EKVX NSCLC
SNB-19 CNS = system: SNB-19 CNS
MOLT-4 leukemia = system: MOLT-4 leukemia
SK-OV-3 ovarian = system: SK-OV-3 ovarian
SF-268 CNS = system: SF-268 CNS
HCT-15 colon = system: HCT-15 colon
SR leukemia = system: SR leukemia
SW-620 colon = system: SW-620 colon
A498 renal = system: A498 renal
OVCAR-8 ovarian = system: OVCAR-8 ovarian

## CCCCc1ccc(Nc2nc(Cl)c3c(ncn3COCCOC(C)=O)n2)cc1
RXF 393 renal
  TGI: 28.4 µM
KM12 colon
  TGI: 37.5 µM
SK-MEL-5 melanoma
  TGI: 36.2 µM
OVCAR-4 ovarian
  TGI: 66.6 µM
SN12C renal
  TGI: 34.8 µM
HT29 colon
  TGI: 34.9 µM
T-47D breast
  TGI: 34.6 µM
HCT-116 colon
  TGI: 31.3 µM
RPMI-8226 leukemia
  TGI: > 100 µM
MDA-MB-435
  TGI: 32.9 µM
U251 CNS
  TGI: 43.1 µM
HOP-92 NSCLC
  TGI: 43.6 µM
UO-31 renal
  TGI: 33.7 µM
OVCAR-3 ovarian
  TGI: 43.8 µM
UACC-62 melanoma
  TGI: 31.1 µM
COLO 205 colon
  TGI: 45.5 µM
NCI-H23 lung
  TGI: 35.6 µM
NCI-H460 lung
  TGI: 34.4 µM
HL-60(TB) leukemia
  TGI: 49.9 µM
MDA-MB-231 breast
  TGI: 33.4 µM
HOP-62 NSCLC
  TGI: 31.5 µM
K-562 leukemia
  TGI: 51.8 µM
NCI/ADR-RES ovarian
  TGI: 41.2 µM
CAKI-1 renal
  TGI: 60.1 µM
A549 NSCLC
  TGI: 41 µM
TK-10 renal
  TGI: 41.8 µM
IGROV1 ovarian
  TGI: 40.2 µM
OVCAR-5 ovarian
  TGI: 37.5 µM
SF-295 CNS
  TGI: 28.2 µM
SF-539 CNS
  TGI: 53.4 µM
CCRF-CEM leukemia
  TGI: 60.7 µM
BT-549 breast
  TGI: 31.4 µM
SNB-75 CNS
  TGI: 16.5 µM
MDA-N
  TGI: 34.4 µM
DU-145 prostate
  TGI: 30.5 µM
MCF7 breast
  TGI: 49.1 µM
MALME-3M melanoma
  TGI: 36.9 µM
UACC-257 melanoma
  TGI: 31.4 µM
SK-MEL-2 melanoma
  TGI: 39.2 µM
PC-3 prostate
  TGI: 37.4 µM
786-0 renal
  TGI: 36.9 µM
HCC-2998 colon
  TGI: 34.3 µM
M14 melanoma
  TGI: 34 µM
ACHN renal
  TGI: 35.8 µM
LOX IMVI melanoma
  TGI: 34 µM
NCI-H226 lung
  TGI: 40.6 µM
NCI-H522 lung
  TGI: 33.4 µM
HS 578T breast
  TGI: 55.2 µM
EKVX NSCLC
  TGI: 37.1 µM
SNB-19 CNS
  TGI: 46.1 µM
MOLT-4 leukemia
  TGI: 42.5 µM
SK-OV-3 ovarian
  TGI: 42.9 µM
SF-268 CNS
  TGI: 38.5 µM
HCT-15 colon
  TGI: 30.7 µM
SR leukemia
  TGI: 47.3 µM
SW-620 colon
  TGI: 41.4 µM
A498 renal
  TGI: 38.8 µM
OVCAR-8 ovarian
  TGI: 33.6 µM
